How the values were obtained:
[1] = target: T1, Human mTOR (FLAG-TOR) (Homo sapiens, UniProt P42345); assay: Human mTOR kinase assay with purified enzyme, DELFIA format; format: biochemical; conditions: purified human mTOR enzyme, DELFIA format
T1 construct: FLAG
Summary of the method: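 Purified FLAG-mTOR in HEPES pH 7.4 buffer with 10 mM MnCl2 was preincubated with inhibitor and reacted 2 h at room temperature with His6-S6K substrate, then stopped with EDTA/EGTA. Phospho-T389 S6K detected by DELFIA with Eu-labelled antibody (40 ng/mL) after plate capture; inhibition computed from signal.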

[2] = tested on: breast line MDA468; assay: In vitro cell culture growth assay (MTS), MDA468; format: cell-based; conditions: Homo sapiens, 72 h, MDA468 cells, three days after drug treatment
Summary of the method: (§1)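 Plate cells; add inhibitors on day 1; after 3 days' treatment, add MTS; read A490; express as percent growth of vehicle-treated control.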

[3] = tested on: prostate line LNCap; assay: In vitro cell culture growth assay (MTS), LNCap; format: cell-based; conditions: Homo sapiens, LNCaP, 72 h, LNCap cells, three days after drug treatment
Summary of the method: as §1

[4] = target: T2, PI3K (Homo sapiens, UniProt P42336); assay: Fluorescence polarization assay for PI3K; format: biochemical; conditions: PI3 Kinase α isoform, fluorescence polarization; read-out: PI3 Kinase α IC50
T2 construct: PI3 Kinase α IC50; other: PI3 Kinase α; other: PI3 Kinase α isoform, fluorescence polarization
T2 sequence (P42336 whole entry, canonical isoform): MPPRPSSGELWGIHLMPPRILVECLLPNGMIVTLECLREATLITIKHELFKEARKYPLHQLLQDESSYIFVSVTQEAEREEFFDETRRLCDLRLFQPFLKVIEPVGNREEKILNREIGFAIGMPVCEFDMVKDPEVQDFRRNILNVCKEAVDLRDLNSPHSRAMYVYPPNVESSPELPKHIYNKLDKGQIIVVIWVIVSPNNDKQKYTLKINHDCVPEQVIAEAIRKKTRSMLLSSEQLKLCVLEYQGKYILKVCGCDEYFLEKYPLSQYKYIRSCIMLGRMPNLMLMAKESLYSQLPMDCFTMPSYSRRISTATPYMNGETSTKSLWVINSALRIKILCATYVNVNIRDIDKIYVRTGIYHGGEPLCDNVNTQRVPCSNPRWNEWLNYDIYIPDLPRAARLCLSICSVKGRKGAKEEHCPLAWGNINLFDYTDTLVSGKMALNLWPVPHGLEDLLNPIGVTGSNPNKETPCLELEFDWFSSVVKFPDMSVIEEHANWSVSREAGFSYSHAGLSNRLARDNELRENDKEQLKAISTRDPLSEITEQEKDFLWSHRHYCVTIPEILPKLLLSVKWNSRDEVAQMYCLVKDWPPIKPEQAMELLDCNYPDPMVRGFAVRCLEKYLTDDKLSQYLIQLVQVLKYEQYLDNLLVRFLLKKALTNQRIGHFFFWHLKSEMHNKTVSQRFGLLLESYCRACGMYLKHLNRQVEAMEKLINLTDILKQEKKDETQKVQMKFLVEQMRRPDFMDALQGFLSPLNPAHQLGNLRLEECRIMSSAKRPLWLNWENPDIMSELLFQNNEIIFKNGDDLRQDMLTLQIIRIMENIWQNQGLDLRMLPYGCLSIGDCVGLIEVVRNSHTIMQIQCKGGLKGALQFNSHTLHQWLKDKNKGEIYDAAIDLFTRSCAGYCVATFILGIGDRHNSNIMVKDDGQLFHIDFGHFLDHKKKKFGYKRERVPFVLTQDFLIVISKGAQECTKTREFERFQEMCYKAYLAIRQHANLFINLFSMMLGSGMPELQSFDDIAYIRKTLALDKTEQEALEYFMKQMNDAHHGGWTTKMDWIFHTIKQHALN
Summary of the method: (§2)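 PI3K was preincubated with compound (final DMSO 1%), and the reaction was started with PIP2/ATP substrate and run 30–60 min. It was stopped with a detector mix giving 10 nM red probe and 70 nM GST-GRP.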

[5] = target: T3, PI3K (Homo sapiens, UniProt P48736); assay: Fluorescence polarization assay for PI3K; format: biochemical; conditions: PI3 Kinase γ isoform, fluorescence polarization; read-out: PI3 Kinase γ IC50
T3 construct: PI3 Kinase γ IC50; other: PI3 Kinase γ; other: PI3 Kinase γ isoform, fluorescence polarization
T3 sequence (P48736 whole entry, canonical isoform): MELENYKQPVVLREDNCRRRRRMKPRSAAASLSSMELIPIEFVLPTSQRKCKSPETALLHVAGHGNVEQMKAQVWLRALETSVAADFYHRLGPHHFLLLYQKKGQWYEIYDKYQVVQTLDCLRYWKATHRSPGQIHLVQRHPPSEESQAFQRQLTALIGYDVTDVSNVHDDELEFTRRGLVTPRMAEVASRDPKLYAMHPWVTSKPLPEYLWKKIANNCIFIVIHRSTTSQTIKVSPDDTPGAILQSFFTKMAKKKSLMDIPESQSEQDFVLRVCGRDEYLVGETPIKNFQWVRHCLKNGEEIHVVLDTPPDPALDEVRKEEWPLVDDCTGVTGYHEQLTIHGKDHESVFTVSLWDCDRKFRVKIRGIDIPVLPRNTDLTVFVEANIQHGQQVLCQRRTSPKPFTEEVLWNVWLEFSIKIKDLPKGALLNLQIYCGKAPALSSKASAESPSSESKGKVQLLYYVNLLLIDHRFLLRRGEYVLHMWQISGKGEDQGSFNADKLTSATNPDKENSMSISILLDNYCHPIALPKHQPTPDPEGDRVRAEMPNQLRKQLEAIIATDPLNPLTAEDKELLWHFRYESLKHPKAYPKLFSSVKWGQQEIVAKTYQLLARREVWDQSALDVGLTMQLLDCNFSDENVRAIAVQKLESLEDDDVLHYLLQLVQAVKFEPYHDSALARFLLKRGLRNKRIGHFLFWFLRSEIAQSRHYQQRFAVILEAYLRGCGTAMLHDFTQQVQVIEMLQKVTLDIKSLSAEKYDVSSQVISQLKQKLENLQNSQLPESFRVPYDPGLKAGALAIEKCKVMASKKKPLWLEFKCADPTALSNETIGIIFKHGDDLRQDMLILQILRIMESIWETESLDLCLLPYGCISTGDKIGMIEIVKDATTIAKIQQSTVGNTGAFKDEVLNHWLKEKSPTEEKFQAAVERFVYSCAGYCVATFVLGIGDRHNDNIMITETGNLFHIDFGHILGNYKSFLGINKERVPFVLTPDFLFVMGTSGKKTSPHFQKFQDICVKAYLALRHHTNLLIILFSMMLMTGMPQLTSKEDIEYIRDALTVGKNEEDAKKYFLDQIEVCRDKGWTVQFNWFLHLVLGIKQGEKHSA
Summary of the method: as §2

| SMILES | IC50 [1] [nM] | IC50 [3] [nM] | IC50 [4] [nM] | IC50 [5] [nM] | IC50 [2] [nM] |
| --- | --- | --- | --- | --- | --- |
| CNC(=O)Nc1ccc(-c2nc(N3CC4COC(C3)O4)c3cnn(C)c3n2)cc1 (centres unmarked) [Example 392, 1-{4-[4-(6,8-dioxa-3-azabicyclo[3.2.1]oct-3-yl)-1-methyl-1H-pyrazolo[3,4-d]pyrimidin-6-yl]phenyl}-3-methylurea] | 39.5 | 1200 | 582 | 11000 | 4800 |
| c1cncc(CN2CCC(n3ncc4c(N5CC6CCC(C5)O6)nc(-c5ccc6[nH]ccc6c5)nc43)CC2)c1 [Example 394, 6-(1H-indol-5-yl)-4-(8-oxa-3-azabicyclo[3.2.1]oct-3-yl)-1-[1-(pyridin-3-ylmethyl)piperidin-4-yl]-1H-pyrazolo[3,4-d]pyrimidine] | 14.5 | 320 | 2920 | 9500 | 2000 |
| O=C(Nc1ccc(-c2nc(N3CC4CCC(C3)O4)c3cnn(CC(F)(F)F)c3n2)cc1)NC1CC1 [Example 395, 1-cyclopropyl-3-{4-[4-(8-oxa-3-azabicyclo[3.2.1]oct-3-yl)-1-(2,2,2-trifluoroethyl)-1H-pyrazolo[3,4-d]pyrimidin-6-yl]phenyl}urea] | 0.48 | 4 | 1460 | 8000 | 60 |
| CN1CCN(c2ccc(NC(=O)Nc3ccc(-c4nc(N5CC6CCC(C5)O6)c5cnn(C6CCC(=O)CC6)c5n4)cc3)cc2)CC1 [Example 400, 1-[4-(4-methylpiperazin-1-yl)phenyl]-3-{4-[4-(8-oxa-3-azabicyclo[3.2.1]oct-3-yl)-1-(4-oxocyclohexyl)-1H-pyrazolo[3,4-d]pyrimidin-6-yl]phenyl}urea] | 0.335 | < 1 | 165 | 1990 | < 1 |
| CNC(=O)Nc1ccc(-c2nc(N3CC4CCC(C3)O4)c3sccc3n2)cc1 [Example 406, 1-methyl-3-{4-[4-(8-oxa-3-azabicyclo[3.2.1]oct-3-yl)thieno[3,2-d]pyrimidin-2-yl]phenyl}urea] | 0.94 | 85 | 423 | > 10000 | 400 |
| O=C(Nc1ccc(-c2nc(N3CC4CCC(C3)O4)c3sccc3n2)cc1)Nc1cccnc1 [Example 412, 1-{4-[4-(8-oxa-3-azabicyclo[3.2.1]oct-3-yl)thieno[3,2-d]pyrimidin-2-yl]phenyl}-3-pyridin-3-ylurea] | 0.28 | 27 | 119 | 2360 | 72 |
| O=C(Nc1ccncc1)Nc1ccc(-c2nc(N3CC4CCC(C3)O4)c3sccc3n2)cc1 [Example 413, 1-{4-[4-(8-oxa-3-azabicyclo[3.2.1]oct-3-yl)thieno[3,2-d]pyrimidin-2-yl]phenyl}-3-pyridin-4-ylurea] | 0.39 | 10 | 80 | 1380 | 48 |
| CC(=O)Nc1ccc(-c2nc(N3CC4CCC(C3)O4)c3sccc3n2)cc1 [Example 415, N-{4-[4-(8-oxa-3-azabicyclo[3.2.1]oct-3-yl)thieno[3,2-d]pyrimidin-2-yl]phenyl}acetamide] | 26 | 1700 | 4370 | > 10000 | 8500 |
| COC(=O)Nc1ccc(-c2nc(N3CC4CCC(C3)O4)c3sccc3n2)cc1 [Example 416, methyl {4-[4-(8-oxa-3-azabicyclo[3.2.1]oct-3-yl)thieno[3,2-d]pyrimidin-2-yl]phenyl}carbamate] | 8.6 | 1850 | 6200 | > 10000 | 9100 |
| Oc1ccc(Nc2nc(N3CC4CCC(C3)O4)c3sccc3n2)cc1 [Example 422, 4-{[4-(8-oxa-3-azabicyclo[3.2.1]oct-3-yl)thieno[3,2-d]pyrimidin-2-yl]amino}phenol] | 270 | 7200 | 4430 | > 10000 | 31000 |
| CN1CCN(Cc2cc3nc(-c4ccc(NC(=O)NN(C)C)cc4)nc(N4CC5CCC(C4)O5)c3s2)CC1 [Example 425, 2,2-dimethyl-N-(4-{6-[(4-methylpiperazin-1-yl)methyl]-4-(8-oxa-3-azabicyclo[3.2.1]oct-3-yl)thieno[3,2-d]pyrimidin-2-yl}phenyl)hydrazinecarboxamide] | 545 | 19000 | 5530 | > 10000 | 23000 |
| CN1CCN(Cc2cc3nc(-c4ccc(NC(=O)Nc5cccnc5)cc4)nc(N4CC5CCC(C4)O5)c3s2)CC1 [Example 426, 1-(4-{6-[(4-methylpiperazin-1-yl)methyl]-4-(8-oxa-3-azabicyclo[3.2.1]oct-3-yl)thieno[3,2-d]pyrimidin-2-yl}phenyl)-3-pyridin-3-ylurea] | 4.7 | 180 | 148 | 2610 | 380 |

Continued, in another order:

| IC50 [1] [nM] | IC50 [3] [nM] | IC50 [4] [nM] | IC50 [5] [nM] | SMILES | IC50 [2] [nM] |
| --- | --- | --- | --- | --- | --- |
| 4.2 | 185 | 101 | 919 | Cn1ncc2c(N3CC4COC(C3)O4)nc(-c3ccc(NC(=O)Nc4cccnc4)cc3)nc21 (centres unmarked) [Example 391, 1-{4-[4-(6,8-dioxa-3-azabicyclo[3.2.1]oct-3-yl)-1-methyl-1H-pyrazolo[3,4-d]pyrimidin-6-yl]phenyl}-3-pyridin-3-ylurea] | 580 |
| 1.75 | 1 | 330 | 3090 | O=C(Nc1ccc(-c2nc(N3C[C@@H]4C[C@H]3CO4)c3cnn(CC(F)(F)F)c3n2)cc1)Nc1ccc(N2CCNCC2)cc1 [Example 393, 1-(4-{4-[(1S,4S)-2-oxa-5-azabicyclo[2.2.1]hept-5-yl]-1-(2,2,2-trifluoroethyl)-1H-pyrazolo[3,4-d]pyrimidin-6-yl}phenyl)-3-(4-piperazin-1-ylphenyl)urea] | 14 |
| 3.1 | 210 | 317 | 5630 | CCn1nc(Br)c2c(N3CC4CCC(C3)O4)nc(-c3ccc(NC(=O)NC)cc3)nc21 [Example 397, 1-{4-[3-bromo-1-ethyl-4-(8-oxa-3-azabicyclo[3.2.1]oct-3-yl)-1H-pyrazolo[3,4-d]pyrimidin-6-yl]phenyl}-3-methylurea] | 1500 |
| 0.445 | 1 | 2110 | > 10000 | O=C1CCC(n2ncc3c(N4CC5CCC(C4)O5)nc(-c4ccc(NC(=O)NC5CC5)cc4)nc32)CC1 [Example 401, 1-cyclopropyl-3-{4-[4-(8-oxa-3-azabicyclo[3.2.1]oct-3-yl)-1-(4-oxocyclohexyl)-1H-pyrazolo[3,4-d]pyrimidin-6-yl]phenyl}urea] | 10 |
| 0.61 | 87 | 825 | > 10000 | O=C(NCCF)Nc1ccc(-c2nc(N3CC4CCC(C3)O4)c3sccc3n2)cc1 [Example 408, 1-(2-fluoroethyl)-3-{4-[4-(8-oxa-3-azabicyclo[3.2.1]oct-3-yl)thieno[3,2-d]pyrimidin-2-yl]phenyl}urea] | 530 |
| 0.71 | 40 | 1360 | ≥ 10000 | O=C(Nc1ccc(-c2nc(N3CC4CCC(C3)O4)c3sccc3n2)cc1)NC1CC1 [Example 410, 1-cyclopropyl-3-{4-[4-(8-oxa-3-azabicyclo[3.2.1]oct-3-yl)thieno[3,2-d]pyrimidin-2-yl]phenyl}urea] | 780 |
| 22 | 1350 | 8620 | > 10000 | c1cc2cc(-c3nc(N4CC5CCC(C4)O5)c4sccc4n3)ccc2[nH]1 [Example 419, 2-(1H-indol-5-yl)-4-(8-oxa-3-azabicyclo[3.2.1]oct-3-yl)thieno[3,2-d]pyrimidine] | 7900 |
| 32 | 1250 | 1770 | > 10000 | Nc1ccc(-c2nc(N3CC4CCC(C3)O4)c3sccc3n2)cn1 [Example 420, 5-[4-(8-oxa-3-azabicyclo[3.2.1]oct-3-yl)thieno[3,2-d]pyrimidin-2-yl]pyridin-2-amine] | 4800 |
| 51 | 1200 | 246 | 9180 | Nc1ncc(-c2nc(N3CC4CCC(C3)O4)c3sccc3n2)cn1 [Example 421, 5-[4-(8-oxa-3-azabicyclo[3.2.1]oct-3-yl)thieno[3,2-d]pyrimidin-2-yl]pyrimidin-2-amine] | 3900 |
| 15.5 | 400 | 874 | 3670 | CN1CCN(Cc2cc3nc(-c4ccc(NC(=O)NC5CC5)cc4)nc(N4CC5CCC(C4)O5)c3s2)CC1 [Example 424, 1-cyclopropyl-3-(4-{6-[(4-methylpiperazin-1-yl)methyl]-4-(8-oxa-3-azabicyclo[3.2.1]oct-3-yl)thieno[3,2-d]pyrimidin-2-yl}phenyl)urea] | 2000 |
